# Reference: patent US20140243302A1, “BRIDGED BICYCLIC COMPOUNDS FOR THE TREATMENT OF BACTERIAL INFECTIONS” (priority 2011, published 2014)
# Test system: Staphylococcus aureus Smith
# Experiment: MIC assay, modified agar dilution (CLSI), S. aureus Smith
# Type: cell-based
# Details: Staphylococcus aureus, agar dilution, 35° C., 16-20 hr; lowest concentration that completely inhibited growth; read-out: S_aureus_Smith_WT_MIC
# In short: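 Agar dilution per CLSI on Mueller Hinton agar (plus 5% horse blood for S. pneumoniae and E. faecium), compound 128 to 0.001 μg/mL in two-fold steps. Spots of ~1×10^4 CFU incubated at 35 °C for 16-20 hr before MIC scoring.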
row,SMILES,MIC [µg/mL]
1,"CC(C)(O)CCOc1ccc2ncc(F)c(CCC34CCC(NCc5ccc6c(n5)NC(=O)CO6)(CC3)CO4)c2n1 [Example 175, 6-{[(1-{2-[3-Fluoro-6-(3-hydroxy-3-methylbutoxy)-1,5-naphthyridin-4-yl]ethyl}-2-oxabicyclo[2.2.2]oct-4-yl)amino]methyl}-2H-pyrido[3,2-b][1,4]oxazin-3(4H)-one]",1
2,"COc1ccc2ncc(F)c(CCC34CCC(N(C)Cc5ccc6c(n5)NC(=O)CO6)(CC3)CO4)c2n1 [Example 176, 6-{[{1-[2-(3-Fluoro-6-methoxy-1,5-naphthyridin-4-yl)ethyl]-2-oxabicyclo[2.2.2]oct-4-yl}(methyl)amino]methyl}-2H-pyrido[3,2-b][1,4]oxazin-3(4H)-one]",0.125
3,"COc1ccc2ncc(F)c(CCC34CCC(NCc5cc6c(nn5)OCC(=O)N6)(CC3)CO4)c2n1 [Example 177, 3-[({1-[2-(3-Fluoro-6-methoxy-1,5-naphthyridin-4-yl)ethyl]-2-oxabicyclo[2.2.2]oct-4-yl}amino)methyl]-5H-pyridazino [3,4-b][1,4]oxazin-6(7H)-one]",1
4,"COc1ccc2ncc(F)c(CCC34CCC(NCc5cc6[nH]c(=O)cnc6cn5)(CC3)CO4)c2n1 [Example 179, 7-[({1-[2-(3-Fluoro-6-methoxy-1,5-naphthyridin-4-yl)ethyl]-2-oxabicyclo[2.2.2]oct-4-yl}amino)methyl]pyrido[3,4-b]pyrazin-2(1H)-one]",0.5
5,"CC(O)CCOc1ccc2ncc(F)c(CCC34CCC(NCc5ccc6c(n5)NC(=O)CO6)(CC3)CO4)c2n1 (centres unmarked) [Example 181, 6-{[(1-{2-[3-Fluoro-6-(3-hydroxybutoxy)-1,5-naphthyridin-4-yl]ethyl}-2-oxabicyclo[2.2.2]oct-4-yl)amino]methyl}-2H-pyrido[3,2-b][1,4]oxazin-3(4H)-one]",0.125
6,"COc1ccc2ncc(F)c(CC(O)C34CCC(NCc5cc6[nH]c(=O)cnc6cn5)(CC3)CO4)c2n1 (centres unmarked) [Example 182, 7-[({1-[2-(3-Fluoro-6-methoxy-1,5-naphthyridin-4-yl)-1-hydroxyethyl]-2-oxabicyclo[2.2.2]oct-4-yl}amino)methyl]pyrido[3,4-b]pyrazin-2(1H)-one]",4
7,"COc1ccc2ncc(F)c(CCC34CCC(NCc5cc6cccnc6n(C)c5=O)(CC3)CO4)c2n1.Cl [Example 183, 3-((1-(2-(3-Fluoro-6-methoxy-1,5-naphthyridin-4-yl)ethyl)-2-oxabicyclo[2.2.2]octan-4-ylamino)methyl)-1-methyl-1,8-naphthyridin-2(1H)-one Hydrochloride]",1
8,"N[C@@H]1CO[C@@H]1COc1ccc2ncc(F)c(CCC34CCC(NCc5ccc6c(n5)NC(=O)CO6)(CC3)CO4)c2n1 [Example 184, 6-((1-(2-(6-(((2S,3R)-3-Aminooxetan-2-yl)methoxy)-3-fluoro-1,5-naphthyridin-4-yl)ethyl)-2-oxabicyclo[2.2.2]octan-4-ylamino)methyl)-2H-pyrido[3,2-b][1,4]oxazin-3(4H)-one]",0.25
9,"N[C@@H]1CO[C@H]1COc1ccc2ncc(F)c(CCC34CCC(NCc5ccc6c(n5)NC(=O)CO6)(CC3)CO4)c2n1 [Example 185, 6-((1-(2-(6-(((2R,3R)-3-Aminooxetan-2-yl)methoxy)-3-fluoro-1,5-naphthyridin-4-yl)ethyl)-2-oxabicyclo[2.2.2]octan-4-ylamino)methyl)-2H-pyrido[3,2-b][1,4]oxazin-3(4H)-one]",0.125
10,"COc1ccc2ncc(F)c(C(CO)CC34CCC(NCc5ccc6c(n5)NC(=O)CO6)(CC3)CO4)c2n1.Cl (centres unmarked) [Example 194, 1-(2-(3-Fluoro-6-methoxy-1,5-naphthyridin-4-yl)-3-hydroxypropyl)-N-((3-oxo-3,4-dihydro-2H-pyrido[3,2-b][1,4]oxazin-6-yl)methyl)-2-oxabicyclo[2.2.2]octan-4-aminium chloride]",1
11,"COc1ccc2ncc(F)c(C(CC34CCC(NCc5ccc6c(n5)NC(=O)CO6)(CC3)CO4)C(=O)[O-])c2n1.[Na+] (centres unmarked) [Example 195, Sodium 2-(3-fluoro-6-methoxy-1,5-naphthyridin-4-yl)-3-(4-(((3-oxo-3,4-dihydro-2H-pyrido[3,2-b][1,4]oxazin-6-yl)methyl)amino)-2-oxabicyclo[2.2.2]octan-1-yl)propanoate]",1
12,"COc1ccc2ncc(F)c(CCC34CCC(NC(=O)c5nc6c(cc5Cl)SCC(=O)N6)(CC3)CC4)c2n1 [Example 196, 7-Chloro-N-(4-(2-(3-fluoro-6-methoxy-1,5-naphthyridin-4-yl)ethyl)bicyclo[2.2.2]octan-1-yl)-3-oxo-3,4-dihydro-2H-pyrido[3,2-b][1,4]thiazine-6-carboxamide]",0.25
13,"COc1ccc2ncc(F)c(CCC34CCC(NCc5nc6c(c(C)c5F)OCC(=O)N6)(CC3)CO4)c2n1.Cl [Example 197, 1-(2-(3-Fluoro-6-methoxy-1,5-naphthyridin-4-yl)ethyl)-N-((7-fluoro-8-methyl-3-oxo-3,4-dihydro-2H-pyrido[3,2-b][1,4]oxazin-6-yl)methyl)-2-oxabicyclo[2.2.2]octan-4-aminium chloride]",0.5
14,"CCc1c(CNC23CCC(CCc4c(F)cnc5ccc(OC)nc45)(CC2)OC3)nc2c(c1C)OCC(=O)N2.Cl [Example 198, N-((7-Ethyl-8-methyl-3-oxo-3,4-dihydro-2H-pyrido[3,2-b][1,4]oxazin-6-yl)methyl)-1-(2-(3-fluoro-6-methoxy-1,5-naphthyridin-4-yl)ethyl)-2-oxabicyclo[2.2.2]octan-4-aminium chloride]",2

# The next lines start with the values.
row,MIC [µg/mL],SMILES
1,0.031,"COc1ccc2ncc(F)c(CC(O)C34CCC(NCc5ccc6c(c5)OCCO6)(CC3)CO4)c2n1 (centres unmarked) [Example 172, 1-{4-[(2,3-Dihydro-1,4-benzodioxin-6-ylmethyl)amino]-2-oxabicyclo[2.2.2]oct-1-yl}-2-(3-fluoro-6-methoxy-1,5-naphthyridin-4-yl)ethanol]"
2,0.125,"COc1ccc2ncc(F)c(CC(O)C34CCC(NC(=O)c5ccc(C)c(F)c5)(CC3)CO4)c2n1 (centres unmarked) [Example 173, 3-Fluoro-N-{1-[2-(3-fluoro-6-methoxy-1,5-naphthyridin-4-yl)-1-hydroxyethyl]-2-oxabicyclo[2.2.2]oct-4-yl}-4-methylbenzamide]"
3,0.031,"COc1nc2c(CCC34CCC(NCc5ccc6c(n5)NC(=O)CO6)(CC3)CO4)c(F)cnc2cc1F [Example 174, 6-[({1-[2-(3,7-Difluoro-6-methoxy-1,5-naphthyridin-4-yl)ethyl]-2-oxabicyclo[2.2.2]oct-4-yl}amino)methyl]-2H-pyrido[3,2-b][1,4]oxazin-3(4H)-one]"
4,0.063,"COc1ccc2ncc(F)c(CCC34CCC(NCc5ccc6ncc(=O)[nH]c6n5)(CC3)CO4)c2n1 [Example 178, 6-[({1-[2-(3-Fluoro-6-methoxy-1,5-naphthyridin-4-yl)ethyl]-2-oxabicyclo[2.2.2]oct-4-yl}amino)methyl]pyrido[2,3-b]pyrazin-3(4H)-one]"
5,0.031,"N#Cc1ccc2ccc(=O)n(CCC34CCC(NCc5ccc6c(n5)NC(=O)CO6)(CC3)CO4)c2c1 [Example 180, 2-Oxo-1-[2-(4-{[(3-oxo-3,4-dihydro-2H-pyrido[3,2-b][1,4]oxazin-6-yl)methyl]amino}-2-oxabicyclo[2.2.2]oct-1-yl)ethyl]-1,2-dihydroquinoline-7-carbonitrile]"
6,0.063,"C=CCOc1ccc2ncc(F)c(CCC34CCC(NCc5ccc6c(n5)NC(=O)CO6)(CC3)CO4)c2n1 [Example 186, 6-{[(1-{2-[3-Fluoro-6-(prop-2-en-1-yloxy)-1,5-naphthyridin-4-yl]ethyl}-2-oxabicyclo[2.2.2]oct-4-yl)amino]methyl}-2H-pyrido[3,2-b][1,4]oxazin-3(4H)-one]"
7,0.016,"COc1ccc2ncc(F)c(CCC34CCC(NC/C=C/c5cc(F)ccc5F)(CC3)CO4)c2n1 [Example 188, (E)-N-(3-(2,5-Difluorophenyl)allyl)-1-(2-(3-fluoro-6-methoxy-1,5-naphthyridin-4-yl)ethyl)-2-oxabicyclo[2.2.2]octan-4-amine]"
8,0.016,"COc1cc(F)c2ncc(F)c(CCC34CCC(NCc5ccc6c(n5)NC(=O)CO6)(CC3)CO4)c2c1.Cl [Example 189, 6-((1-(2-(3,8-Difluoro-6-methoxyquinolin-4-yl)ethyl)-2-oxabicyclo[2.2.2]octan-4-ylamino)methyl)-2H-pyrido[3,2-b][1,4]oxazin-3(4H)-one Hydrochloride]"
9,0.063,"COc1ccc2ncc(F)c(CC(C)(O)C34CCC(NCc5ccc6c(n5)NC(=O)CO6)(CC3)CO4)c2n1.Cl (centres unmarked) [Example 190, 6-((1-(1-(3-Fluoro-6-methoxy-1,5-naphthyridin-4-yl)-2-hydroxypropan-2-yl)-2-oxabicyclo[2.2.2]octan-4-ylamino)methyl)-2H-pyrido[3,2-b][1,4]oxazin-3(4H)-one Hydrochloride]"
10,0.016,"COc1cc(C)c2ncc(F)c(CCC34CCC(NCc5ccc6c(n5)NC(=O)CO6)(CC3)CO4)c2n1.Cl [Example 191, 6-((1-(2-(3-Fluoro-6-methoxy-8-methyl-1,5-naphthyridin-4-yl)ethyl)-2-oxabicyclo[2.2.2]octan-4-ylamino)methyl)-2H-pyrido[3,2-b][1,4]oxazin-3(4H)-one Hydrochloride]"
11,0.031,"CNC(=O)COc1ccc2ncc(F)c(CCC34CCC(NC/C=C/c5cc(F)ccc5F)(CC3)CO4)c2n1 [Example 192, (E)-2-(8-(2-(4-(3-(2,5-Difluorophenyl)allylamino)-2-oxabicyclo[2.2.2]octan-1-yl)ethyl)-7-fluoro-1,5-naphthyridin-2-yloxy)-N-methylacetamide]"
12,0.031,"COc1ccc2ncc(F)c(CCC34CCC(NC/C=C/c5ccccn5)(CC3)CO4)c2n1 [Example 193, (E)-1-(2-(3-Fluoro-6-methoxy-1,5-naphthyridin-4-yl)ethyl)-N-(3-(pyridin-2-yl)allyl)-2-oxabicyclo[2.2.2]octan-4-amine]"
